Results reported in US7927632B2, “Compositions for sterilizing spores of spore-forming microorganisms comprising the extracts of torilidis fructus” (CJ Cheiljedang Corporation, priority 2005, dated 2011).

System: spores of Bacillus subtilis
Experiment: Sterilization effect on Bacillus subtilis spores by total viable cell count
Conditions: direct mechanism (surfactant ingredients) or indirect mechanism (germination inducers), ingredients acting jointly within the extract
Experimental: Bacillus subtilis spores were selected for use in an antimicrobial test against a spore-forming microorganism.
Vegetative cells of Bacillus subtilis ATCC 6633 were sub-cultured, streaked onto tryptic soy agar (TSA) plates, and incubated at 30° C. for 48 hrs. The plates were then stored at a low temperature of 5° C. and used as a seed culture. After the seed culture was identified to have no morphological abnormality by microscopic observation, it was spread onto a nutrient agar plate containing magnesium sulfate (NAMS), and incubated at 30° C. for 48 hrs. After 10^10-10^12 spores had emerged, the plate was washed with physiological saline, and the spores were scratched with a platinum loop and transferred into a sterile tube. The spores were then centrifuged at 4° C. at 12,000 rpm for 2 min, and this centrifugation was carried out once more. After being microscopically observed to ensure the state of the spores, the pellet was subjected to on-off ultrasonication for 5 min to destroy only the vegetative cells, and was then centrifuged again. Spore formation was further confirmed by a Dorner method, and the spores were stored at −20° C. until use for an antimicrobial test.
The antimicrobial plant materials were extracted with 75% ethanol, concentrated in a vacuum, and freeze-dried to provide aqueous or powdered antimicrobial materials. […] An antimicrobial test against spores of Bacillus subtilis, the representative spore-forming microorganism, was performed by optical density analysis at 600 nm and by counting of the total number of viable cells grown on a nutrient agar plate.
Optical density analysis is a method of indirectly analyzing the degree of growth of vegetative cells and spores by measuring OD values at 600 nm for vegetative cells and spores cultured in tryptic soy broth (TSB) at 37° C. for 18 hrs. The plant materials were primarily screened for candidates considered effective in sterilization by optical density analysis. Then, the candidates were further assessed for their antimicrobial effects by viable cell count. In detail, a spore suspension was mixed with physiological saline and a natural antimicrobial material (1% final concentration). The mixture was agitated at 30° C. for 3 hrs, and was then centrifuged at 12,000 rpm. After the supernatant, considered to contain the added antimicrobial material, was discarded, the pellet remaining in an Ependorf tube was covered with distilled water and centrifuged again to eliminate residual antimicrobial material. This washing step was repeated three times to obtain only spores treated with a natural antimicrobial material. This was done to evaluate the sterilization effects of the natural antimicrobial materials on pure spore samples.

SMILES | sterilization effect attributed to ingredients of the extract
C[C@H](N)C(=O)O [alanine] | about 10^2
CC(=O)OC1CC2CCC1(C)C2(C)C (centres unmarked) [bornyl acetate] | about 10^1
CC(=O)OC/C=C(\C)CCC=C(C)C [geranyl acetate] | about 10^1
OC[C@@H](O)[C@@H](O)[C@H](O)[C@H](O)CO [mannitol] | about 10^2
OC[C@@H](O)[C@H](O)[C@@H](O)CO [xylitol] | about 10^2
